Several values for one entry are separate records, joined by “and”; a condition that tells them apart may be missing. Equal values may be shown once. Read-outs that look alike come from different tables or passages of the source.
Tests used:
VEEV = assay: microbe, parasite or virus in culture; format: cell-based, Venezuelan equine encephalitis virus
EEEV = assay: microbe, parasite or virus in culture; format: cell-based, Eastern equine encephalitis virus; details: Eastern equine encephalitis virus, Vero 76
WEEV = assay: microbe, parasite or virus in culture; format: cell-based, Western equine encephalitis virus
CHIKV = assay: microbe, parasite or virus in culture; format: cell-based, Chikungunya virus; details: for EC50: Vero76 cells
RVFV = assay: microbe, parasite or virus in culture; format: cell-based, Rift Valley fever virus
Heartland virus = assay: microbe, parasite or virus in culture; format: cell-based; details: Vero
La Crosse virus = assay: microbe, parasite or virus in culture; format: cell-based
Marpol virus = assay: organism not typed; format: cell-based
Punta Toro virus = assay: microbe, parasite or virus in culture; format: cell-based
[1] = tested on: Severe fever thrombocytopenia syndrome virus; assay: organism not typed; format: cell-based; details: Vero
Junin virus = assay: microbe, parasite or virus in culture; format: cell-based
[2] = tested on: Lymphocytic choriomeningitis virus; assay: microbe, parasite or virus in culture; format: cell-based; details: Mammarenavirus choriomeningitidis, Vero
Pichinde virus = assay: microbe, parasite or virus in culture; format: cell-based; details: Vero
Tacaribe virus = assay: microbe, parasite or virus in culture; format: cell-based
Influenza A H1N1 = assay: microbe, parasite or virus in culture; format: cell-based, influenza A virus
Flu A H7N9 (High Path) = assay: microbe, parasite or virus in culture; format: cell-based, influenza A virus
Flu A H5N1 (High Path) = format: cell-based, influenza A virus
Flu A H3N2 = assay: microbe, parasite or virus in culture; format: cell-based, influenza A virus
Flu A H5N1 (Low Path) = assay: microbe, parasite or virus in culture; format: cell-based, influenza A virus
Flu B = assay: microbe, parasite or virus in culture; format: cell-based, influenza B virus
Parainfluenza virus 3 = assay: organism not typed; format: cell-based
EBOV = assay: microbe, parasite or virus in culture; format: cell-based, Ebola virus; details: Zaire ebolavirus, Vero
MERS = assay: microbe, parasite or virus in culture; format: cell-based, MERS coronavirus; details: Middle East respiratory syndrome-related coronavirus
POWV = assay: microbe, parasite or virus in culture; format: cell-based, Powassan virus
ZIKV = assay: microbe, parasite or virus in culture; format: cell-based, Zika virus; details: for EC50: Vero 76 cells
DENV2 = assay: microbe, parasite or virus in culture; format: cell-based, Dengue virus 2; details: Dengue virus, DENV2, Vero 76
Usutu virus = assay: microbe, parasite or virus in culture; format: cell-based; details: Vero 76
Poliovirus = assay: microbe, parasite or virus in culture; format: cell-based
Enterovirus-68 = assay: microbe, parasite or virus in culture; format: cell-based, EV-D68; details: Enterovirus-68, RD cells
HRV-14 = assay: microbe, parasite or virus in culture; format: cell-based, human rhinovirus; details: Rhinovirus B, HRV14
Vero cells = details: African green monkey
in vitro [3] = details: African green monkey
in vitro [4] = details: dog
in vitro [5] = details: African green monkey; remark: listed apart in the source
in vitro [6] = details: Syrian golden hamster
in vitro [7] = details: human
in vitro [8] = details: human; remark: listed apart in the source
Plasma stability [9] = assay: Plasma stability
Plasma stability [10] = assay: Plasma stability; remark: listed apart in the source
Plasma stability [11] = assay: Plasma stability; remark: listed apart in the source
[12] = Liver microsome stability; details: both, human, microsomes, pH 7.4
[13] = Liver microsome stability; details: CD-1, mouse, microsomes
[14] = Liver microsome stability; details: male, Sprague-Dawley, rat, microsomes, pH 7.4
[15] = both, human
[16] = male, CD-1, mouse
[17] = male, Sprague-Dawley, rat
[18] = both, human, pH 7.4
[19] = CD-1, mouse
[20] = male, Sprague-Dawley, rat, pH 7.4
[21] = Western equine encephalitis virus, Vero 76

## O=c1ccn([C@@H]2O[C@](F)(COP3(=O)OCc4ccccc4O3)[C@@H](O)[C@H]2O)c(=O)[nH]1 (stereo partly shown) [EIDD-2838]
VEEV
  EC50: 8.51 µM
VEEV; Venezuelan equine encephalitis virus, Vero 76
  EC50: 8.28 µM
EEEV
  EC90: 28.4 µM
WEEV
  EC50: 5.75 µM and 5.98 µM
WEEV; [21]
  EC50: 7.82 µM
  EC90: 24.2 µM
CHIKV; CHIKV
  EC50: 3.68 µM and 3.91 µM
CHIKV; Chikungunya virus, Vero 76
  EC90: 23.9 µM
CHIKV; Chikungunya virus, Vero 76, CHIKV
  EC50: 2.3 µM
RVFV
  EC50: 3.68 µM and 4.14 µM
Heartland virus
  EC90: 8.05 µM
La Crosse virus
  EC50: 0.69 µM
La Crosse virus; La Crosse virus, Vero 76
  EC90: 0.12 µM
Marpol virus
  EC50: 19.1 µM
Marpol virus; Vero
  EC50: 25.3 µM
Punta Toro virus
  EC50: 5.75 µM
Punta Toro virus; Punta Toro virus, Vero 76
  EC50: 6.21 µM
[1]
  EC90: 7.82 µM
Junin virus
  EC50: 0.37 µM
Junin virus; Mammarenavirus juninense, Vero
  EC90: 0.023 µM
[2]
  EC90: 4.6 µM
Pichinde virus
  EC90: 0.55 µM
Tacaribe virus
  EC50: 0.046 µM
Tacaribe virus; Mammarenavirus tacaribeense, Vero
  EC90: 0.046 µM
Influenza A H1N1
  EC50: 1.2 µM and 1.59 µM and 1.98 µM
Influenza A H1N1; Influenza A virus, H1N1, MDCK
  EC50: 2.3 µM
Flu A H7N9 (High Path)
  EC50: 4.37 µM
Flu A H7N9 (High Path); Influenza A virus, H7N9, MDCK
  EC50: 5.29 µM
Flu A H5N1 (High Path)
  EC50: 11.3 µM
Flu A H3N2
  EC50: 0.87 µM
Flu A H3N2; Influenza A virus, H3N2, MDCK
  EC50: 0.97 µM
Flu A H5N1 (Low Path)
  EC50: 0.71 µM
Flu A H5N1 (Low Path); Influenza A virus, H5N1, MDCK
  EC50: 0.78 µM
Flu B
  EC50: 0.74 µM and 0.67 µM
Flu B; Influenza B virus, MDCK
  EC50: 0.78 µM
Parainfluenza virus 3
  EC50: 78.2 µM
Parainfluenza virus 3; MA104
  EC50: 73.6 µM
EBOV
  EC50: 150 µM
MERS; Vero 76
  EC50: 1.98 µM
MERS; Vero C1008
  EC50: 2.53 µM
POWV
  EC50: 98.9 µM
POWV; Powassan virus, BHK
  EC50: 75.9 µM
ZIKV; ZIKV
  EC50: 7.82 µM and 9.2 µM
ZIKV; Zika virus, Vero 76
  EC90: 43.7 µM
ZIKV; Zika virus, Vero 76, ZIKV
  EC50: 8.28 µM
DENV2
  EC50: > 230 µM
  EC90: 29.9 µM
Usutu virus
  EC50: 6.9 µM
  EC90: 25.8 µM
Poliovirus
  EC50: 8.74 µM
Poliovirus; Enterovirus C, Vero 76
  EC50: 7.36 µM
Enterovirus-68; Enterovirus D, RD
  EC50: 7.36 µM
Enterovirus-68
  EC50: 7.82 µM
HRV-14
  EC50: > 230 µM
Vero cells
  CC50: 213 µM
In vitro [3]
  CC50: > 230 µM
In vitro [4]
  CC50: > 230 µM
In vitro [5]
  CC50: > 230 µM
In vitro [6]
  CC50: > 230 µM
In vitro [7]
  CC50: > 230 µM
In vitro [8]
  CC50: > 230 µM
Plasma stability [9]; both, human, plasma
  half-life at 1 μM: 12 min
Plasma stability [10]; male, CD-1, mouse, plasma
  half-life at 1 μM: 1 min
Plasma stability [11]; male, Sprague-Dawley, rat, plasma
  half-life at 1 μM: < 1 min
[12]
  half-life at 1 μM: 7 min
[13]
  half-life at 1 μM: 7 min
[14]
  half-life at 1 μM: 8 min

## CC(C)[C@H](N)C(=O)OC[C@@]1(F)O[C@@H](n2ccc(=O)[nH]c2=O)[C@H](O)[C@@H]1O [EIDD-2971, [(1S)-1-[[(2S,3S,4R,5R)-5-(2,4-dioxopyrimidin-1-yl)-2-fluoro-3,4-dihydroxy-tetrahydrofuran-2-yl]methoxycarbonyl]-2-methyl-propyl]ammonium chloride]
[15]
  max [2749]: 0.0152 µM
[16]
  max [2749]: 0.267 µM
[17]
  max [2749]: 0.155 µM
[18]; microsomes
  half-life: 38 min
[18]
  max [2749]: 0.179 µM
[19]
  max [2749]: 0.305 µM
[19]; microsomes
  half-life: 11 min
[20]; microsomes
  half-life: 33 min
[20]
  max [2749]: 0.203 µM
Plasma stability [9]; human plasma, drug 1.00 μM, 37° C.
  half-life: 81 min
Plasma stability [10]; mouse plasma, drug 1.00 μM
  half-life: 59 min
Plasma stability [11]; rat plasma, drug 1.00 μM
  half-life: 50 min

Source: US20260124226A1 (priority 2023, published 2026)
